Consider 17 molecules from patent US10227347B2, “Purinyl-N-hydroxyl pyrimidine formamide derivative, preparation methods and uses thereof” (Guizhou Bailing Group Pharmaceutical CO., LTD., priority 2015, dated 2019).

For experiment [1], the system named is hct116 cells (colon cancer). Kind of experiment: Cell proliferation inhibition, hct116 (MTT). The format is cell-based. Particulars: Homo sapiens, HCT-116. As to the method:
(§1) The tumor cell lines are purchased from American Type Culture Collection (ATCC) and cultivated to the status of logarithmic growth as per the cultural method recommended by ATCC. The cells in logarithmic phase are spread on a 96 well plate as per 2000-3000/well; as for anchorage-dependent cells, the compound should be added in the test wells at certain concentration for incubation for 96 h after cell adherence. Determining cell proliferation activities with method MTT for tumor cells representing solid tumor model and with method cck-8 for tumor cells representing hematologic tumor model, and analyzing the result data with the software GraphPad Prism.
(§2) Calculating the value of IC50 as per the formula: Y=background data+(top data−background data)/(1+10^((Log IC50−X)*rate of curve)). Where, Y refers to the inhibition ratio (%) and X refers to the compound concentration.

In experiment [2] the test system is A2780s cells (ovarian cancer). Kind of experiment: Cell proliferation inhibition, A2780s (MTT). Particulars: Homo sapiens. The class given is cell-based. The procedure: as §1, §2
Experiment [3] addresses T1, HDAC1 (Homo sapiens, UniProt Q13547).
T1 construct: purchased BPS Bioscience
Kind of experiment: In vitro HDAC1 enzymatic activity inhibition (Lys-Ac-AMC substrate). The class given is biochemical. The procedure: Determining the inhibition capability to HDAC activity through the substrate method of fluorophore 4-amino-7-coumarin coupled Ac-peptide (Lys-Ac-AMC). HDAC1 protein is purchased from BPS Bioscience Company; the reaction buffer system is a modified tris(hydroxymethyl)aminomethane (TRIS) buffer (pH7.0). All small molecule compounds are prepared and dissolved by 100% DMSO (dimethyl sulfoxide). HDAC is prepared into the buffer as per certain concentration to be served as the enzyme solution; trypsin and the fluorophore 4-amino-7-coumarin coupled Ac-peptide substrate are prepared into the buffer as per certain concentration to be served as the substrate solution. Adding the compound into the reaction wells of the 384 well plate at the designed concentration, then adding 15 μL HDAC solution into the reaction wells (adding 15 μL blank buffer into the control well 0) for incubation under ambient temperature for 15 min; then adding 10 μL substrate solution to start reaction; during the reaction, the final concentration of HDAC1 protein is 6 nM, trypsin 0.05 μM and Ac-peptide 8 μM.
(§3) Calculating the value of IC50 as per the formula: Y=background data+(top data−background data)/(1+10^((Log IC50−X)*rate of curve))
Where, Y refers to the inhibition ratio (%) and X refers to the compound concentration. […]
Analyzing the result data with the software GraphPad Prism and calculating the value of IC50 as per the formula: Y=background data+(top data−background data)/(1+10^((Log IC50−X)*rate of curve)). Where, Y refers to the inhibition ratio (%) and X refers to the compound concentration.

Experiment [4] relates to MV4-11 cells (acute myeloid leukemia). The experiment is described as follows: Cell proliferation inhibition, MV4-11 (cck-8). The class given is cell-based. Particulars: Homo sapiens. As to the method: as §1, §2
Experiment [5] deals with T2, PI3Kα (Homo sapiens, UniProt P42336).
T2 construct: purchased Invitrogen PV4788
Kind of experiment: PI3Kα activity inhibition (Kinase-Glo). Particulars: Table 1, graded; read-out: PI3Kα IC50. The class given is biochemical. As to the method:
Detecting the inhibition capability of the compound to PI3Kα and PI3Kδ activities with Kinase-Glo (purchased from Promege Company; Catalog No.: V3771). […] The reaction system also comprises substrates as PIP2 (4, 5-diphosphoinositide, purchased from Life Technologies Company) and ATP (triphosadenine, purchased from Sigma Company). The reaction buffer system comprises 50 mM HEPES (4-hydroxyethylpiperazine ethane sulfonic acid), 3 mM MgCl2, 1 mM EGTA (ethylene glycol bis(2-amino ethylether)quadrol), 100 mM NaCl, 0.03% CHAPS (3-[3-(cholamidopropyl)dimethylamino]-1-propanesulfonic acid), 2 mM DTT (dithiothreitol). The pH value of the reaction buffer is 7.5. […] Mixing the system evenly for incubation under ambient temperature (for 1 h in PI3Kα test and for 2 h in PI3Kδ test). After incubation, adding 10 μL Kinase-Glo which has been preheated to ambient temperature into each reaction well to terminate the reaction; shaking it in dark place for 15 min after it is mixed evenly, then measuring the fluorescence intensity with a microplate reader and analyzing the result data with the software GraphPad Prism.
as §3
Where, Y refers to the inhibition ratio (%) and X refers to the compound concentration.
Background: Kinase-Glo reads ATP consumption through a luciferase reaction.

Setting [6] is: 96 h incubation, read-out: Proliferation IC50, Colon cancer hct116.
Setting [7] is: 96 h incubation, read-out: Proliferation IC50, Ovarian cancer A2780s.
The mark [8] stands for this setting: Table 1, graded, read-out: HDAC1 IC50.
The mark [9] stands for this setting: read-out: inhibition value IC50 to the activity of HDAC1.
Where [10] appears, read: 96 h incubation, read-out: Proliferation IC50, Acute myeloid leukemia MV4-11.
Setting [11] is: read-out: IC50 to proliferation of hct116 cells.
Where [12] appears, read: read-out: IC50 to proliferation of A2780s cells.
[13] abbreviates: read-out: IC50 to proliferation of MV4-11 cells.

Like-named read-outs stand apart in the source and are kept apart here.

T1 sequence (Q13547 whole entry, species assumed): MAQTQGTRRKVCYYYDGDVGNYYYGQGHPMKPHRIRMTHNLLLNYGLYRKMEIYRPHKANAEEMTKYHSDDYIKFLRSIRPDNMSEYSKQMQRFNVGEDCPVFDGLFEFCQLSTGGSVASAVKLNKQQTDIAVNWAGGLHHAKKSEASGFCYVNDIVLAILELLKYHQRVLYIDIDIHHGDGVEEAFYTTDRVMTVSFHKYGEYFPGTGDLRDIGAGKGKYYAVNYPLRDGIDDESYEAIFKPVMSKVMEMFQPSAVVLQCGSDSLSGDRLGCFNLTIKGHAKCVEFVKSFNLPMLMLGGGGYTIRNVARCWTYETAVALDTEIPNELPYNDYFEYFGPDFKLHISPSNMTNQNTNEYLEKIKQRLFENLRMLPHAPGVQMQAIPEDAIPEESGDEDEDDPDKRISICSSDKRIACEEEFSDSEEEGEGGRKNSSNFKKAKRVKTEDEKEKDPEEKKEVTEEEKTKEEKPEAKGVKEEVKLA
T2 sequence (P42336 whole entry, species assumed): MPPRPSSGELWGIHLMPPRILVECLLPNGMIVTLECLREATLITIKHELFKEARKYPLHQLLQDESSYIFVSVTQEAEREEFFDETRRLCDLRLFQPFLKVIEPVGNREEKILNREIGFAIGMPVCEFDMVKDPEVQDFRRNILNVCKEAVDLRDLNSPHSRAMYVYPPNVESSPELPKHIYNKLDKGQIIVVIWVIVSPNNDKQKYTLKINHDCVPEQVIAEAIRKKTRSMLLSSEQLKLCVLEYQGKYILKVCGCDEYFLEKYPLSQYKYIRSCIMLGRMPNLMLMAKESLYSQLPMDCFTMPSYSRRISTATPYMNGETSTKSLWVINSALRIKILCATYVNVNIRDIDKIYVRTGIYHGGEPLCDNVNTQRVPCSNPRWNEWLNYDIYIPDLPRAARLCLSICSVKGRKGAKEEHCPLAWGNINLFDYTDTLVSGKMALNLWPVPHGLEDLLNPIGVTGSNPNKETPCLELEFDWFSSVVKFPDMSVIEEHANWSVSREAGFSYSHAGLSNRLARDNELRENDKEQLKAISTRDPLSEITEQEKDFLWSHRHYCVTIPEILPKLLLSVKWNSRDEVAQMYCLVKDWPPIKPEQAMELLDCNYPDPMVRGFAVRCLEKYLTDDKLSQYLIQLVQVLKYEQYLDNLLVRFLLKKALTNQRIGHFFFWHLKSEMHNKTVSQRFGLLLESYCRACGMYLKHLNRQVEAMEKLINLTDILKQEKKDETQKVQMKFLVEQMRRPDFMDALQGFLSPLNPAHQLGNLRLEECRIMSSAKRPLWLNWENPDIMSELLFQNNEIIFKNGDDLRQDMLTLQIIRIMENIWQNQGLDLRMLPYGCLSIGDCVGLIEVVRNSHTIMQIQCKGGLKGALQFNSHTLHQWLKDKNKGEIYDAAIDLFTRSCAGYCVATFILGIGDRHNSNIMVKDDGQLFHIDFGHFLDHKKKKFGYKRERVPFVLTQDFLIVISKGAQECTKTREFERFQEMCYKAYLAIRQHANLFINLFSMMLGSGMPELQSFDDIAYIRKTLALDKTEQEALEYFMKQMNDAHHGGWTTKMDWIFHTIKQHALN
T2 sequence (P27986 whole entry partner, species assumed): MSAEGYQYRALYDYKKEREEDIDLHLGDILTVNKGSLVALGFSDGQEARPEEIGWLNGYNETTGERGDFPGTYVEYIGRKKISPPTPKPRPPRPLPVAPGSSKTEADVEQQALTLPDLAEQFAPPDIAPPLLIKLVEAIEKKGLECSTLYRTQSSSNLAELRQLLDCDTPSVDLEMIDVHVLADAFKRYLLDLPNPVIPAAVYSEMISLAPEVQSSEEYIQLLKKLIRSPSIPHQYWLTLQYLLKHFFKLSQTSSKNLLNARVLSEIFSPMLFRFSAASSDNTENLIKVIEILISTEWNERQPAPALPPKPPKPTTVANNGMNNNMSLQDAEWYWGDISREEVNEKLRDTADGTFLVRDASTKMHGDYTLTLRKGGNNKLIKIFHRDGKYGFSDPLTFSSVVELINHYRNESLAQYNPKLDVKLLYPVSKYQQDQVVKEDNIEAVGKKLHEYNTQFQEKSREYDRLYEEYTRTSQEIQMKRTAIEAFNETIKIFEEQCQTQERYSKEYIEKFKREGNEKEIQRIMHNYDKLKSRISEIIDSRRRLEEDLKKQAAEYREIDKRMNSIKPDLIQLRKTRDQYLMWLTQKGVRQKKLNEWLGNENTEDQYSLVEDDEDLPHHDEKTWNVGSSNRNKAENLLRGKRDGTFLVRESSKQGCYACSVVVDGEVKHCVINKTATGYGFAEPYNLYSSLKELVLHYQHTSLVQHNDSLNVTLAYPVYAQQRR

Take `CN(Cc1nc2c(N3CCOCC3)nc(-c3cccc(O)c3)nc2n1C)c1ncc(C(=O)NO)cn1` [CLJ-27, 2-(((2-(3-hydroxyphenyl)-9-methyl-6-morpholine-9H-purine-8-yl))methyl(methyl)amino)-N-hydroxyl pyrimidine-5-formamide]: the IC50 is 10 to 100 nM in experiment [1] (setting [6]); 10 to 100 nM in experiment [2] (setting [7]); < 1 nM in experiment [3] (setting [8]); < 1 nM in experiment [3] (setting [9]); 0.1 to 10 nM in experiment [4] (setting [10]); > 10000 nM in experiment [5].

As for `CN(Cc1nc2c(N3CCOCC3)nc(-c3ccc(S(C)(=O)=O)cc3)nc2n1C)c1ncc(C(=O)NO)cn1` [CLJ-57, 2-(((2-(4-methylsulphonylphenyl)-9-methyl-6-morpholine-9H-purine-8-yl))methyl(methyl)amino)-N-hydroxyl pyrimidine-5-formamide], the IC50 in experiment [1] (setting [6]) was 10 to 100 nM; in experiment [2] (setting [7]), 0.1 to 10 nM; in experiment [3] (setting [8]), < 1 nM; in experiment [3] (setting [9]) it was < 1 nM; in experiment [4] (setting [10]), 0.1 to 10 nM; in experiment [5], > 10000 nM.

`CCn1c(CN(C)c2ncc(C(=O)NO)cn2)nc2c(N3CCOCC3)nc(-c3ccc(OC)nc3)nc21` [CLJ-2, 2-(((9-ethyl-2(6-methoxyl 3-pyridyl)-6-morpholino-9H-purine-8-yl))methyl(methyl)amino)-N-hydroxyl pyrimidine-5-formamide]: the IC50 is 100 to 1000 nM in experiment [1] (setting [6]); 100 to 1000 nM in experiment [2] (setting [7]); < 100 nM in experiment [3] (setting [8]); 100 to 1000 nM in experiment [4] (setting [10]); 1000 to 10000 nM in experiment [5].

In the case of `CCCCN(Cc1nc2c(N3CCOCC3)nc(-c3ccc4[nH]ncc4c3)nc2n1C)c1ncc(C(=O)NO)cn1` [CLJ-17, N-hydroxy-2-(((2-(1H-indazole-5-yl)-9-methyl-6-morpholine-9H-purine-8-yl))methyl(butyl)amino)pyrimidine-5-formamide], the IC50 in experiment [1] (setting [6]) was > 1000 nM; in experiment [2] (setting [7]), > 1000 nM; in experiment [3] (setting [8]), 100 to 1000 nM; in experiment [4] (setting [10]), > 1000 nM; in experiment [5], > 10000 nM.

As to `COc1cc(-c2nc(N3CCOCC3)c3nc(CN(C)c4ncc(C(=O)NO)cn4)n(C)c3n2)cc(OC)c1OC` [CLJ-35, 2-(((2-(3,4,5-trimetoxyphenyl)-9-methyl-6-morpholine-9H-purine-8-yl))methyl(methyl)amino)-N-hydroxyl pyrimidine-5-formamide], the IC50 is 10 to 100 nM in experiment [1] (setting [6]); 10 to 100 nM in experiment [2] (setting [7]); < 100 nM in experiment [3] (setting [8]); 0.1 to 10 nM in experiment [4] (setting [10]); > 10000 nM in experiment [5].

With `CN(C)CCn1cc(-c2nc(N3CCOCC3)c3nc(CN(C)c4ncc(C(=O)NO)cn4)n(C)c3n2)cn1` [CLJ-25], the IC50 in experiment [1] (setting [6]) is 0.1 to 10 nM; in experiment [1] (setting [11]), 0.1 to 10 nM; in experiment [2] (setting [7]) it was 0.1 to 10 nM; in experiment [2] (setting [12]), 0.1 to 10 nM; in experiment [3] (setting [8]) it was < 100 nM; in experiment [4] (setting [10]) it was 0.1 to 10 nM. Also, the IC50 lay within 0.1 to 10 nM in experiment [4] (setting [13]) and 1000 to 10000 nM in experiment [5].

Take `CCNc1ccc(-c2nc(N3CCOCC3)c3nc(CN(C)c4ncc(C(=O)NO)cn4)n(C)c3n2)cc1` [CLJ-48]: the IC50 in experiment [1] (setting [6]) was 0.1 to 10 nM; in experiment [1] (setting [11]), 0.1 to 10 nM; in experiment [2] (setting [7]) it was 0.1 to 10 nM; in experiment [2] (setting [12]), 0.1 to 10 nM; in experiment [3] (setting [8]) it was < 100 nM; in experiment [4] (setting [10]) it was 0.1 to 10 nM. The IC50 in experiment [4] (setting [13]) is 0.1 to 10 nM; in experiment [5], > 10000 nM.

With `Cc1ccc(-c2nc(N3CCOCC3)c3nc(CN(C)c4ncc(C(=O)NO)cn4)n(C)c3n2)cc1` [CLJ-60, 2-(((2-(p-methylbenzene)-9-methyl-6-morpholine-9H-purine-8-yl))methyl(methyl)amino)-N-hydroxyl pyrimidine-5-formamide], the IC50 in experiment [1] (setting [6]) was 10 to 100 nM; in experiment [2] (setting [7]), 0.1 to 10 nM; in experiment [3] (setting [8]), < 100 nM; in experiment [4] (setting [10]), 0.1 to 10 nM; in experiment [5], > 10000 nM.

As to `COc1ccc(-c2nc(N3CCOCC3)c3nc(CN(C)c4ncc(C(=O)NO)cn4)n(C(C)C)c3n2)cc1` [CLJ-31], the IC50 was > 1000 nM in experiment [1] (setting [6]); > 1000 nM in experiment [2] (setting [7]); 100 to 1000 nM in experiment [3] (setting [8]); > 1000 nM in experiment [4] (setting [10]); > 10000 nM in experiment [5].

`CN(Cc1nc2c(N3CCOCC3)nc(-c3ccc(C(=O)O)s3)nc2n1C)c1ncc(C(=O)NO)cn1` [CLJ-20, 2-(((2-(5-carboxyl-2-thienyl)-9-methyl-6-morpholine-9H-purine-8-yl))methyl(methyl)amino)-N-hydroxyl pyrimidine-5-formamide]: the IC50 is 0.1 to 10 nM in experiment [1] (setting [6]); 10 to 100 nM in experiment [2] (setting [7]); < 100 nM in experiment [3] (setting [8]); 0.1 to 10 nM in experiment [4] (setting [10]); > 10000 nM in experiment [5].

Regarding `CN(Cc1nc2c(N3CCOCC3)nc(-c3cccs3)nc2n1C)c1ncc(C(=O)NO)cn1` [CLJ-18, 2-(((2-(2-thienyl)-9-methyl-6-morpholine-9H-purine-8-yl))methyl(methyl)amino)-N-hydroxyl pyrimidine-5-formamide], the IC50 in experiment [1] (setting [6]) was 0.1 to 10 nM; in experiment [2] (setting [7]), 10 to 100 nM; in experiment [3] (setting [8]), < 100 nM; in experiment [4] (setting [10]), 0.1 to 10 nM; in experiment [5] it was > 10000 nM.

Turning to `CCCCc1ccc(-c2nc(N3CCOCC3)c3nc(CN(C)c4ncc(C(=O)NO)cn4)n(C)c3n2)s1` [CLJ-21, 2-(((2-(5-n-butyl-2-thienyl)-9-methyl-6-morpholine-9H-purine-8-yl))methyl(methyl)amino)-N-hydroxyl pyrimidine-5-formamide], the IC50 in experiment [1] (setting [6]) was 0.1 to 10 nM; in experiment [1] (setting [11]), 0.1 to 10 nM; in experiment [2] (setting [7]) it was 0.1 to 10 nM; in experiment [2] (setting [12]), 0.1 to 10 nM; in experiment [3] (setting [8]) it was < 100 nM; in experiment [4] (setting [10]), 0.1 to 10 nM. The figures for the IC50 in experiment [4] (setting [13]) and in experiment [5] were 0.1 to 10 nM and > 10000 nM, respectively.

Turning to `Nc1cc(F)ccc1NC(=O)c1ccc(CNC(=O)/C=C/c2cccnc2)cc1` [Chidamide, chidamide, reference compound], the figures for the IC50 in experiment [1] (setting [6]), in experiment [2] (setting [7]) and in experiment [4] (setting [10]) were > 1000 nM, > 1000 nM and 100 to 1000 nM, respectively.

On to “2-(((2-(4-((2-hydroxycaproyl)sulfydryl)phenyl)-9-methyl-6-morpholine-9H-purine-8-yl))methyl(methyl)amino)-N-hydroxyl pyrimidine-5-formamide [CLJ-42]”, for which the IC50 was < 100 nM in experiment [3] (setting [8]) and > 10000 nM in experiment [5].

Consider `COc1ccc(-c2nc(N3CCN(CCO)CC3)c3nc(CN(C)c4ncc(C(=O)NO)cn4)n(C)c3n2)cc1` [CLJ-70, N-hydroxy-2-(((2-(4-methoxyphenyl)-9-methyl-6-(4-(2-hydroxyethylpiperazine)-1-yl)-9H-purine-8-yl)methyl)(methyl)amino)pyrimidine-5-formamide], for which the IC50 is < 100 nM in experiment [3] (setting [8]) and > 10000 nM in experiment [5].

`CN(C)c1ccc(-c2nc(N3CCOCC3)c3nc(CN(C)c4ncc(C(=O)NO)cn4)n(C)c3n2)cc1` [CLJ-46]: the IC50 in experiment [3] (setting [8]) was < 1 nM; in experiment [3] (setting [9]), < 1 nM; in experiment [5] it was > 10000 nM.

As to “2-(((2-(2-(3-(1-hydroxyethyl)2-phenyl)-9-methyl-6-morpholine-9H-purine-8-yl))methyl(methyl)amino)-N-hydroxyl pyrimidine-5-formamide [CLJ-39]”, the IC50 is < 100 nM in experiment [3] (setting [8]) and > 10000 nM in experiment [5].
